Laboratory results taken from PMC7733796 (Proceedings of the National Academy of Sciences of the …, 2020).
Non-standard residues stand in square brackets, D forms with d. Residues, ends and D or L forms follow the SMILES beside them.

Assays:
CXCR4 [1] = target: T1, CXCR4 (Homo sapiens, UniProt P61073); conditions: hNSCs preincubated with 10 µM, osmotic pump 24-72 h, analysis 3 d posttransplant
CXCR4 [2] = target: T1, CXCR4; test: Ca2+ mobilization; format: cell-based; conditions: Sup-T1 cells; for Ca2+ efflux (signaling) with increasing concentrations: Fura-2/AM ratiometric, plate reader, DV1 tested up to 40 µM
Sup-T1 cells = test: Boyden chamber chemotaxis assay, Sup-T1 cells; format: cell-based, human; conditions: peptide in lower chamber at titrated concentrations, 37°C 2 h
[3] = test system: Sandhoff disease (Hexβ−/−) mice; test: Sandhoff disease; format: in vivo, mouse
activated M1 microglia = test: Microgliosis and safety after intracerebral injection in adult mice; format: in vivo, mouse; conditions: for CD11b+ cells (activated M1 microglia): adult mouse brain after injection, n = 3 mice per condition
CXCR4 [4] = target: T1, CXCR4; test: Single-cell [Ca2+]i; format: cell-based; conditions: SDV1a 10 µM; at least 11 cells per condition
hNSCs [5] = test: Microarray gene expression and gene ontology analysis of hNSCs; format: cell-based, human; conditions: hNSCs vs non-treated control
hNSCs [6] = test: Boyden chamber transmigration assay, hNSCs; format: cell-based, human; conditions: hNSCs 1x10^5, 8-µm fibronectin-coated transwell, 5 h
ERK1/2, p38-MAPK, IκBα = test: Western blot of phosphorylation downstream of CXCR4 in hNSCs; format: cell-based, human; conditions: hNSC lysates
hNSCs [7] = test: CyQuant proliferation assay, hNSCs; format: cell-based, human; conditions: SDV1a 10 nM, 72 h
CXCR4 [8] = target: T1, CXCR4; test: Receptor endocytosis analysis; format: cell-based; conditions: hNSCs, ligand 4 µg/mL, 37°C
[9] = Persistence and pharmacokinetics in mouse brain; format: in vivo
transplanted hNSCs = format: in vivo, mouse; conditions: adult C57BL/6J mice, 2 µl injected into cortex or hippocampus, n=3 per group
[10] = 4-mo-old mice, hiPSC-hNSCs + SDV1a, n = 6

T1 sequence (P61073 whole entry): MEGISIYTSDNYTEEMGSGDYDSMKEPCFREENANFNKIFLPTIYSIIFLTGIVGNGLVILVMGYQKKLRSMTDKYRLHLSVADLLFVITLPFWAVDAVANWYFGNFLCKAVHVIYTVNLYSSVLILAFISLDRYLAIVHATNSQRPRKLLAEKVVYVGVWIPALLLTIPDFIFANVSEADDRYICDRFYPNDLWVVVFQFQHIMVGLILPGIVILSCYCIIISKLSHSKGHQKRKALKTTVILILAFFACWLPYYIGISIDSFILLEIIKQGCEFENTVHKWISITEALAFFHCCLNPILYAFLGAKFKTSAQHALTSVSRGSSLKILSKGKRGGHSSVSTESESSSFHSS

In the case of `c1cc(CN2CCCNCCNCCCNCC2)ccc1CN1CCCNCCNCCCNCC1` [AMD3100], the “Effect of CXCR4 inhibition on hNSC migration to SDV1a” value (CXCR4 [1]) is reported as “abrogated”.
In the case of D-(1~21)-vMIP-II [DV1], the “Ca2+ efflux (signaling) with increasing concentrations” value (CXCR4 [2]) is reported as “evoked no signaling” and the “Chemotaxis of Sup-T1 cells (upper to lower chamber)” value (Sup-T1 cells) is reported as “elicited no chemotaxis”.
In the case of `CC(C)C[C@H](NC(=O)[C@H](CO)NC(=O)[C@@H](NC(=O)[C@@H]1CCCN1C(=O)[C@@H](N)CCCCN)C(C)C)C(=O)N[C@@H](CO)C(=O)N[C@@H](Cc1ccc(O)cc1)C(=O)N[C@@H](CCCNC(=N)N)C(=O)NCC(=O)NCC(=O)N[C@H](CC(C)C)C(=O)NCC(=O)N[C@H](C)C(=O)N[C@H](CO)C(=O)N[C@H](Cc1c[nH]c2ccccc12)C(=O)N[C@H](Cc1c[nH]cn1)C(=O)N[C@H](CCCNC(=N)N)C(=O)N1CCC[C@@H]1C(=O)N[C@H](CC(=O)O)C(=O)N[C@H](CCCCN)C(=O)N[C@H](CS)C(=O)N[C@H](CS)C(=O)N[C@H](CC(C)C)C(=O)NCC(=O)N[C@H](Cc1ccc(O)cc1)C(=O)N[C@H](CCC(N)=O)C(=O)N[C@H](CCCCN)C(=O)N[C@H](CCCNC(=N)N)C(=O)N1CCC[C@@H]1C(=O)N[C@H](CC(C)C)C(=O)N1CCC[C@@H]1C(N)=O` [SDV1a, L-(1∼8)-SDF1α-GG-D-(1∼21)-vMIP-II] (H-KPVSLSYRGG[dL]G[dA][dS][dW][dH][dR][dP][dD][dK][dC][dC][dL]G[dY][dQ][dK][dR][dP][dL][dP]-NH2; N-terminus assumed), the “GM2 ganglioside storage in cortex” value [3, 10] is reported as “little GM2 accumulation occurred”, the “Microgliosis (Iba1) in cortex where donor cells engrafted” value [3, 10] is reported as “scant” and the “Hex enzyme levels in CNS parenchyma” value ([3]; hiPSC-hNSC+SDV1a, regions where donor cells were attracted) is reported as “raised beyond the critical 3 to 5% therapeutic threshold”. For the same compound, the “CD11b+ cells (activated M1 microglia)” value (activated M1 microglia) was 1.1 ± 1.0 per 0.4 mm^2, the “Systemic or CNS toxicity, behavior” value (activated M1 microglia; mice after intracerebral injection) was “no evidence of systemic or CNS toxicity or altered behavior” and the “Change of [Ca2+]i in single hNSCs” value (CXCR4 [4]) was “increased [Ca^2+]i”. For the same compound, the “Gene ontology profile induced in hNSCs” value (hNSCs [5]) was “primarily induced genes associated with developmental, homeostatic, and stem cell-related functions”, the “Concentration at which hNSC chemotaxis peaks (bell-shaped dose-response)” value (hNSCs [6]) was 5 nM and the “Phosphorylation of p38-MAPK (Thr180/Tyr182) and IκBα (Ser-32/36)” value (ERK1/2, p38-MAPK, IκBα) was “phosphorylated”. For the same compound, the “Increase in total DNA content compared to untreated controls” value (hNSCs [7]) was 10%, the “Signaling intensity (Ca2+ release) relative to CXCL12/SDF1α” value (CXCR4 [2]; Fura-2/AM) was “an order-of-magnitude less” and the “Time to down-regulation of CXCR4 surface expression” value (CXCR4 [8]) was 90 min. For the same compound, the “Persistence in brain after injection” value ([9]; FITC- or biotin-tagged SDV1a, adult mouse brain) was 3 wk and the “Time to dissemination throughout the regions” value ([9]; postinjection, C57BL/6J mice, HPLC-MS/MS) was no more than 30 min.
For “C-X-C motif chemokine ligand-12 [CXCL12]”, the “Attraction of hNSCs transplanted into the contralateral hippocampus” value (transplanted hNSCs) was “drew no hNSCs”, the “Persistence of microgliosis postinjection” value (activated M1 microglia; adult mouse brain) was 2 wk and the “CD11b+ cells (activated M1 microglia)” value (activated M1 microglia) was 11.7 ± 2.8 per 0.4 mm^2. For the same compound, the “Gene ontology profile induced in hNSCs” value (hNSCs [5]) was “up-regulation of inflammatory and immune-related processes”, the “Concentration at which hNSC chemotaxis peaks (bell-shaped dose-response)” value (hNSCs [6]) was 0.5 nM and the “Ca2+ efflux (signaling) with increasing concentrations” value (CXCR4 [2]) was “produced the most intense signaling”. The “Time after which cell surface CXCR4 starts to rebound” value (CXCR4 [8]) was greater than 45 min, the “Time to down-regulation of CXCR4 surface expression” value (CXCR4 [8]) was no more than 10 min and the “Time by which undetectable in brain after administration” value ([9]; similarly labeled recombinant CXCL12, adult mouse brain) was no more than 2 days.
In the case of “L-(1~8)-SDF1a (KPVSLSYR; UniProt P48061 22-29, looked up, fragment) [S1]”, the “Chemotaxis of Sup-T1 cells (upper to lower chamber)” value (Sup-T1 cells) is reported as “elicited no chemotaxis”.
